According to patent US20200095241A1, “SUBSTITUTED 1,2,4-THIADIAZOLYLPYRROLONES AND 1,2,4-THIADIAZOLYLHYDANTOINS AND SALTS THEREOF AND USE THEREOF AS HERBICIDES” (Bayer CropScience Aktiengesellschaft, priority 2016, published 2020):

Columns and labels:
Polygonum convolvulus [1] = experiment: Pre-emergence herbicidal action; assay type: in vivo; conditions: after about 3 weeks
Outline: (§1)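 Visual % damage vs untreated controls (100% = plants dead, 0% = like controls), scored ~3 wk after treatment. Soil-surface spray on freshly sown, soil-covered seeds; WP/EC formulations, 0.5% additive, 600 l/ha water; 1280 or 320 g/ha; greenhouse.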

Viola tricolor [2] = experiment: Pre-emergence herbicidal action; assay type: in vivo; conditions: Viola tricolor, 504 h, after about 3 weeks, read-out: Viola tricolor, herbicidal effect scored visually
Outline: as §1

Echinochloa crus-galli [3] = experiment: Pre-emergence herbicidal action; assay type: in vivo; conditions: 1280 g/ha, after about 3 weeks
Outline: as §1

Alopecurus myosuroides [4] = experiment: Pre-emergence herbicidal action; assay type: in vivo; conditions: after about 3 weeks
Outline: as §1

Stellaria media [5] = experiment: Pre-emergence herbicidal action; assay type: in vivo; conditions: Stellaria media, 504 h, after about 3 weeks, read-out: Stellaria media, herbicidal effect scored visually
Outline: as §1

Setaria viridis [6] = experiment: Pre-emergence herbicidal action; assay type: in vivo; conditions: Setaria viridis, 504 h, after about 3 weeks, read-out: Setaria viridis, herbicidal effect scored visually
Outline: as §1

Matricaria inodora [7] = experiment: Pre-emergence herbicidal action; assay type: in vivo; conditions: Tripleurospermum inodorum, 504 h, after about 3 weeks, read-out: Matricaria inodora, herbicidal effect scored visually
Outline: as §1

Cyperus esculentus = experiment: Pre-emergence herbicidal action; assay type: in vivo; conditions: 1280 g/ha, after about 3 weeks
Outline: as §1

photosystem II (PS II) = target: T1, photosystem II (PS II) (Spinacia oleracea, UniProt P69560); experiment: Measurement of the PS II activity in thylakoid membranes (DCPIP reduction); assay type: biochemical; conditions: 100 μM test compound, spinach thylakoid membranes, DCPIP 120 μM, 10 min at 22° C. with exposure to light; read-out: Effect (inhibition of PS II activity)
T1 construct: the chloroplasts were osmotically ruptured and the thylakoid membranes were then obtained by centrifugation; from tissue; host or cells: fresh spinach leaves; thylakoid membranes isolated from chloroplasts
Procedure: Cooled fresh spinach leaves were comminuted and homogenized in 50 mM phosphate buffer, pH 6.8. 10 mM KCl, 0.34 M sucrose (sucrose buffer) (blender, 1 g of plant material/ml). The homogenate was subsequently filtered through 4 layers of Miracloth and the chloroplasts were isolated by centrifugation, i.e. 10 min of centrifugation at 4400×g (4° C.). The sediment was suspended in 25 ml of sucrose buffer and re-centrifuged for 10 min at 4400×g (4° C.). The sediment was then suspended in 40 ml of 50 mM phosphate buffer, pH 6.8, 10 mM KCl, without sucrose. In this step, the chloroplasts were osmotically ruptured and the thylakoid membranes were then obtained by centrifugation (10 min, 4400×g, 4° C.). The membrane sediment was finally suspended in 20 ml of 50 mM phosphate buffer, pH 6.8, 10 mM KCl. Following protein determination and activity determination, the membrane suspension was divided into aliquots and frozen in liquid nitrogen. The aliquots were stored at −80° C. Under these conditions, the photosystem II preparation was storage stable for at least three months. The activity determination of photosystem II (PS II) was then carried out using the following test principle:
The electron transfer from PS II to an artificial electron acceptor, 2,6-dichlorophenolindophenol (DCPIP), was measured with exposure to light. The concentration of the blue oxidized form of DCPIP was determined spectrophotometrically at wavelength λ=595 nm. […] The activity determination was carried out in microtiter plates (96 cavities) in a reaction volume of 200 μl. Here, 155 μl of dilute membrane suspension were initially charged in 50 mM of phosphate buffer, pH 6.8, 10 mM KCl. Depending on the activity of the PS II preparation, the dilution was adjusted such that the measurement of the decrease in absorption (λ=595 nm) was linear for at least 10 min. In each case 5 μl solution of the test compounds of a concentration of 100 μM in DMSO were added to the enzyme suspension; controls contained 5 μl DMSO; the final concentration of DMSO in the reaction batch was thus 2.5% (v/v); this concentration had no adverse effect on the enzymatic activity. On each microtiter plate, a known PS II inhibitor, for example metribuzin, was used as standard, which allowed the quality of the PS II test to be assessed. The reaction was started by addition of 40 μl DCPIP solution (600 μM in distilled water); the final concentration of DCPIP was 120 μM. Measurement of absorption was carried out over a period of 10 min at 22° C. and with exposure to light. Using metribuzin as comparative substance, the results for the efficacy of the compounds of the general formula (I) at 100 μM are stated in the table below using the following classification: ++++ (inhibition≥90%), +++ ([…]≥70%), ++ (70%>inhibition≥50%), + (50%>inhibition≥30%).

Pharbitis purpurea [8] = experiment: Post-emergence herbicidal action; assay type: in vivo; conditions: about 3 weeks after treatment
Outline: (§2)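 Plants grown from seed in sandy loam in the greenhouse were sprayed 2 to 3 weeks after sowing, at the one-leaf stage, with WP or EC formulations as aqueous suspension or emulsion plus 0.5% additive at 600 l/ha water. Application rates were 1280 g/ha or 320 g/ha. Activity was scored visually after about 3 weeks versus untreated controls (0% = like control, 100% = plants dead).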

Polygonum convolvulus [9] = experiment: Post-emergence herbicidal action; assay type: in vivo; conditions: 1280 g/ha, about 3 weeks after treatment
Outline: as §2

Amaranthus retroflexus [10] = experiment: Post-emergence herbicidal action; assay type: in vivo; conditions: about 3 weeks after treatment
Outline: as §2

Viola tricolor [11] = experiment: Post-emergence herbicidal action; assay type: in vivo; conditions: 504 h, about 3 weeks after treatment, read-out: Viola tricolor, herbicidal activity rated visually
Outline: as §2

Echinochloa crus-galli [12] = experiment: Post-emergence herbicidal action; assay type: in vivo; conditions: 1280 g/ha, about 3 weeks after treatment
Outline: as §2

Alopecurus myosuroides [13] = experiment: Post-emergence herbicidal action; assay type: in vivo; conditions: 1280 g/ha, about 3 weeks after treatment
Outline: as §2

Veronica persica [14] = experiment: Post-emergence herbicidal action; assay type: in vivo; conditions: about 3 weeks after treatment
Outline: as §2

Abutilon theophrasti [15] = experiment: Post-emergence herbicidal action; assay type: in vivo; conditions: Abutilon theophrasti, 504 h, about 3 weeks after treatment, read-out: Abutilon theophrasti, herbicidal activity rated visually
Outline: as §2

Stellaria media [16] = experiment: Post-emergence herbicidal action; assay type: in vivo; conditions: Stellaria media, 504 h, about 3 weeks after treatment, read-out: Stellaria media, herbicidal activity rated visually
Outline: as §2

Setaria viridis [17] = experiment: Post-emergence herbicidal action; assay type: in vivo; conditions: Setaria viridis, 504 h, about 3 weeks after treatment, read-out: Setaria viridis, herbicidal activity rated visually
Outline: as §2

Matricaria inodora [18] = experiment: Post-emergence herbicidal action; assay type: in vivo; conditions: about 3 weeks after treatment
Outline: as §2

Hordeum murinum [19] = experiment: Post-emergence herbicidal action; assay type: in vivo; conditions: 1280 g/ha, about 3 weeks after treatment
Outline: as §2

Hordeum murinum [20] = experiment: Pre-emergence herbicidal action; assay type: in vivo; conditions: 320 g/ha, after about 3 weeks
Outline: as §1

Pharbitis purpurea [21] = experiment: Pre-emergence herbicidal action; assay type: in vivo; conditions: 1280 g/ha, after about 3 weeks
Outline: as §1

Lolium rigidum = experiment: Pre-emergence herbicidal action; assay type: in vivo; conditions: 1280 g/ha, after about 3 weeks
Outline: as §1

Abutilon theophrasti [22] = experiment: Pre-emergence herbicidal action; assay type: in vivo; conditions: 1280 g/ha, after about 3 weeks
Outline: as §1

Amaranthus retroflexus [23] = experiment: Pre-emergence herbicidal action; assay type: in vivo; conditions: 320 g/ha, after about 3 weeks
Outline: as §1

Veronica persica [24] = experiment: Pre-emergence herbicidal action; assay type: in vivo; conditions: 1280 g/ha, after about 3 weeks
Outline: as §1

Row | Structure (SMILES) | Polygonum convolvulus, herbicidal effect scored visually (Polygonum convolvulus [1]; 1280 g/ha) | pest or weed control at 1280 g/ha (Viola tricolor [2]) | Alopecurus myosuroides, herbicidal effect scored visually (Alopecurus myosuroides [4]; 1280 g/ha) | pest or weed control at 1280 g/ha (Stellaria media [5]) | pest or weed control at 1280 g/ha (Setaria viridis [6]) | pest or weed control at 1280 g/ha (Matricaria inodora [7]) | inhibition at 100 µM (stock) (photosystem II (PS II)) | Pharbitis purpurea, herbicidal activity rated visually (Pharbitis purpurea [8]; 1280 g/ha) | Polygonum convolvulus, herbicidal activity rated visually (Polygonum convolvulus [9]) | Amaranthus retroflexus, herbicidal activity rated visually (Amaranthus retroflexus [10]; 1280 g/ha) | pest or weed control at 1280 g/ha (Viola tricolor [11]) | Alopecurus myosuroides, herbicidal activity rated visually (Alopecurus myosuroides [13]) | Veronica persica, herbicidal activity rated visually (Veronica persica [14]; 1280 g/ha) | pest or weed control at 1280 g/ha (Abutilon theophrasti [15]) | pest or weed control at 1280 g/ha (Stellaria media [16]) | pest or weed control at 1280 g/ha (Setaria viridis [17]) | Matricaria inodora, herbicidal activity rated visually (Matricaria inodora [18]; 1280 g/ha) | pest or weed control at 320 g/ha (Matricaria inodora [7]) | other results
1 | CC1=C(C)C(O)N(c2nc(C(C)C)ns2)C1=O (stereo not shown) [I.2-5, 3,4-Dimethyl-5-hydroxy-1-(3-(isopropyl)-1,2,4-thiadiazol-5-yl)-1,5-dihydro-2H-pyrrol-2-one] | 100% | 100% | 80% | 100% | 100% | 100% | > 90% | 100% | 80% | 100% | 100% | 80% | 90% | 100% | 100% | 100% | 100% |  | Echinochloa crus-galli, herbicidal effect scored visually (Echinochloa crus-galli [3]): 80%; Cyperus esculentus, herbicidal effect scored visually (Cyperus esculentus): 90%; Echinochloa crus-galli, herbicidal activity rated visually (Echinochloa crus-galli [12]): 90%; Hordeum murinum, herbicidal activity rated visually (Hordeum murinum [19]): 100%
2 | CC1=C(C)C(O)N(c2nc(C3CC3)ns2)C1=O (stereo not shown) [I.2-11, 3,4-Dimethyl-5-hydroxy-1-(3-cyclopropyl-1,2,4-thiadiazol-5-yl)-1,5-dihydro-2H-pyrrol-2-one] |  |  |  |  |  |  | > 90% |  |  |  |  |  |  |  |  |  |  | 100% | Polygonum convolvulus, herbicidal effect scored visually (Polygonum convolvulus [1]; 320 g/ha): 100%; pest or weed control at 320 g/ha (Viola tricolor [2]; 320 g/ha): 100%; Alopecurus myosuroides, herbicidal effect scored visually (Alopecurus myosuroides [4]; 320 g/ha): 90%; pest or weed control at 320 g/ha (Stellaria media [5]; 320 g/ha): 100%; pest or weed control at 320 g/ha (Setaria viridis [6]; 320 g/ha): 100%; Hordeum murinum, herbicidal effect scored visually (Hordeum murinum [20]): 100%; Pharbitis purpurea, herbicidal activity rated visually (Pharbitis purpurea [8]; 320 g/ha): 100%; Amaranthus retroflexus, herbicidal activity rated visually (Amaranthus retroflexus [10]; 320 g/ha): 100%; pest or weed control at 320 g/ha (Viola tricolor [11]; 320 g/ha): 100%; pest or weed control at 320 g/ha (Abutilon theophrasti [15]; 320 g/ha): 100%; pest or weed control at 320 g/ha (Stellaria media [16]; 320 g/ha): 100%; pest or weed control at 320 g/ha (Setaria viridis [17]; 320 g/ha): 100%; Matricaria inodora, herbicidal activity rated visually (Matricaria inodora [18]; 320 g/ha): 100%
3 | CC1=C(Cl)C(=O)N(c2nc(C3CC3)ns2)C1O (stereo not shown) [I.3-11, 3-Chloro-4-methyl-5-hydroxy-1-(3-cyclopropyl-1,2,4-thiadiazol-5-yl)-1,5-dihydro-2H-pyrrol-2-one] | 80% | 100% | 100% | 100% | 90% | 100% | > 90% | 100% |  | 100% | 100% | 80% | 80% | 100% | 100% |  | 90% |  | Pharbitis purpurea, herbicidal effect scored visually (Pharbitis purpurea [21]): 100%; Lolium rigidum, herbicidal effect scored visually (Lolium rigidum): 80%; Abutilon theophrasti, herbicidal effect scored visually (Abutilon theophrasti [22]): 80%
4 | CN1CC(O)N(c2ncns2)C1=O (stereo not shown) [I.13-1, 4-Hydroxy-1-methyl-3-[1,2,4-thiadiazol-5-yl]-imidazolidin-2-one] |  | 100% |  | 100% | 80% |  | 50 to 70% | 90% | 100% | 100% | 100% | 80% |  | 100% | 90% | 80% |  | 90% | Amaranthus retroflexus, herbicidal effect scored visually (Amaranthus retroflexus [23]): 100%; Veronica persica, herbicidal effect scored visually (Veronica persica [24]): 90%; Veronica persica, herbicidal activity rated visually (Veronica persica [14]; 320 g/ha): 80%
